Molecules are shown by their SMILES.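 1) Cells in 96-well plates. 2) Compound, 48 h, 5 concentrations. 3) Linear interpolation between surrounding doses. 4) Unreached endpoint = highest concentration. TGI: total growth inhibition.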 Bounds are passed on as bounds.

Among the test systems are ACHN renal; UACC-62 melanoma; OVCAR-5 ovarian; HCT-116 colon; OVCAR-4 ovarian; U251 CNS; SK-MEL-28 melanoma; OVCAR-3 ovarian; UACC-257 melanoma; RPMI-8226 leukemia; HOP-92 NSCLC; T-47D breast; OVCAR-8 ovarian; RXF 393 renal; SK-MEL-2 melanoma; HCT-15 colon; NCI-H460 lung; CAKI-1 renal; SF-539 CNS.
Holding throughout (experiment): inhibition of tumour cell growth, NCI panel, 48 h

As for `CC[C@@]1(N(C)C)C(=O)OCc2c1cc1n(c2=O)Cc2cc3ccccc3nc2-1`, the TGI was 42.2 µM with ACHN renal; 56.6 µM in the assay on UACC-62 melanoma; more than 100 µM in the assay with OVCAR-5 ovarian; more than 100 µM in the assay on HCT-116 colon; more than 100 µM with OVCAR-4 ovarian; more than 100 µM in the assay with U251 CNS. In addition, the TGI in the assay on SK-MEL-28 melanoma is more than 100 µM; with OVCAR-3 ovarian, more than 100 µM; in the assay on UACC-257 melanoma, more than 100 µM; with RPMI-8226 leukemia it was more than 100 µM; in the assay on HOP-92 NSCLC, 69.6 µM; with T-47D breast, 52.6 µM. The TGI is 31.2 µM in the assay with OVCAR-8 ovarian; 31 µM in the assay with RXF 393 renal; 77.5 µM with SK-MEL-2 melanoma; more than 100 µM in the assay on HCT-15 colon; 50.6 µM in the assay with NCI-H460 lung.
For the compound `O=C(/C=C1\N=C(c2ccccc2)N(c2nc3ccc(Sc4ccccc4)cc3[nH]2)C1=O)/C=C/c1ccccc1`, the TGI was more than 100 µM with ACHN renal; 85.2 µM in the assay on UACC-62 melanoma; more than 100 µM in the assay with OVCAR-5 ovarian; more than 100 µM in the assay with HCT-116 colon; more than 100 µM in the assay with OVCAR-4 ovarian; 81.3 µM in the assay on U251 CNS. Also, the TGI with SK-MEL-28 melanoma was more than 100 µM; with OVCAR-3 ovarian, more than 100 µM; with CAKI-1 renal, more than 100 µM; in the assay on UACC-257 melanoma, more than 100 µM; in the assay on RPMI-8226 leukemia, 60.9 µM; in the assay with HOP-92 NSCLC, more than 100 µM. In addition, the TGI is 82.6 µM in the assay with T-47D breast; more than 100 µM in the assay on OVCAR-8 ovarian; more than 100 µM with RXF 393 renal; 41.5 µM in the assay with SK-MEL-2 melanoma; more than 100 µM in the assay on HCT-15 colon; more than 100 µM with NCI-H460 lung.
As to `CC(=N\N)/C(C)=N/N=C(C)/C(C)=N/N=C(C)/C(C)=N/N=C(C)/C(C)=N/N`, the TGI in the assay with OVCAR-5 ovarian, in the assay on HCT-116 colon, in the assay with OVCAR-4 ovarian, with U251 CNS, in the assay with SK-MEL-28 melanoma and in the assay with SF-539 CNS was more than 100 µM throughout. Besides, the TGI with OVCAR-3 ovarian, in the assay on CAKI-1 renal, in the assay with UACC-257 melanoma, in the assay with RPMI-8226 leukemia, in the assay on HOP-92 NSCLC and in the assay on T-47D breast was more than 100 µM throughout. In addition, the TGI in the assay on OVCAR-8 ovarian, in the assay with RXF 393 renal, in the assay with SK-MEL-2 melanoma, in the assay on HCT-15 colon and with NCI-H460 lung was more than 100 µM each time.
In the case of `ClCCCN(CCCCl)c1ccc(C=Nc2cccc(Cl)c2)cc1`, the TGI with ACHN renal was more than 100 µM; in the assay on UACC-62 melanoma it was 15.4 µM; in the assay on OVCAR-5 ovarian it was more than 91.4 µM; with HCT-116 colon, more than 66.6 µM; with OVCAR-4 ovarian, more than 79.5 µM; in the assay with U251 CNS it was more than 89.1 µM. Moreover, the TGI is more than 100 µM with SK-MEL-28 melanoma; more than 100 µM with SF-539 CNS; 57.9 µM in the assay with OVCAR-3 ovarian; 11.8 µM in the assay with CAKI-1 renal; more than 77 µM in the assay with UACC-257 melanoma; 55 µM with RPMI-8226 leukemia. Besides, the TGI with HOP-92 NSCLC was more than 100 µM; in the assay on T-47D breast it was 44.8 µM; in the assay on OVCAR-8 ovarian, 56.5 µM; in the assay with RXF 393 renal it was more than 52.7 µM; with SK-MEL-2 melanoma, more than 100 µM; in the assay on HCT-15 colon, more than 100 µM. For the same compound, the TGI in the assay with NCI-H460 lung is more than 82.1 µM.
As for `O=C(O)c1cc2ccccc2c(N=Nc2ccccc2)c1O`, the TGI is 69.5 µM in the assay with ACHN renal; 35.2 µM with UACC-62 melanoma; more than 100 µM with OVCAR-5 ovarian; more than 100 µM with HCT-116 colon; more than 100 µM in the assay with OVCAR-4 ovarian; 45.1 µM in the assay on U251 CNS. The TGI in the assay on SK-MEL-28 melanoma is more than 100 µM; with OVCAR-3 ovarian, more than 100 µM; in the assay on CAKI-1 renal it was 84.2 µM; with UACC-257 melanoma it was 30.5 µM; in the assay on RPMI-8226 leukemia, more than 100 µM; in the assay with HOP-92 NSCLC, more than 100 µM. Moreover, the TGI is more than 100 µM in the assay with T-47D breast, more than 100 µM in the assay on OVCAR-8 ovarian, 72.5 µM in the assay with RXF 393 renal and more than 100 µM in the assay with HCT-15 colon.
In the case of `COc1ccc(Oc2cccc(/C=C3/C(=O)Nc4ccccc43)c2)cc1`, the TGI in the assay on ACHN renal is 23.8 µM; in the assay on OVCAR-5 ovarian, 31.5 µM; in the assay on HCT-116 colon, 15.2 µM; in the assay with OVCAR-4 ovarian, 27 µM; in the assay on U251 CNS, 14.2 µM; with SK-MEL-28 melanoma, 23.6 µM. Moreover, the TGI in the assay on SF-539 CNS is 33.1 µM; in the assay on OVCAR-3 ovarian, 21.6 µM; in the assay with CAKI-1 renal, 20.9 µM; in the assay on UACC-257 melanoma, 27.8 µM; in the assay with HOP-92 NSCLC, 14.3 µM; in the assay on T-47D breast, 9.75 µM. Moreover, the TGI is more than 100 µM in the assay with OVCAR-8 ovarian; 15.7 µM with RXF 393 renal; 23 µM in the assay with SK-MEL-2 melanoma; 21.8 µM with HCT-15 colon; 25 µM with NCI-H460 lung.
As to `O=C(OCc1ccccc1CN1CCOCC1)c1cccc(Br)c1`, the TGI in the assay with ACHN renal was more than 100 µM; in the assay on UACC-62 melanoma, more than 100 µM; in the assay on OVCAR-5 ovarian, more than 100 µM; in the assay with HCT-116 colon, more than 100 µM; in the assay on OVCAR-4 ovarian, 70 µM; in the assay on U251 CNS, more than 100 µM. Moreover, the TGI in the assay on SK-MEL-28 melanoma is more than 100 µM; in the assay with SF-539 CNS, more than 100 µM; with OVCAR-3 ovarian, 44.3 µM; in the assay with CAKI-1 renal, 64.6 µM; in the assay on UACC-257 melanoma it was 63.4 µM; with HOP-92 NSCLC it was more than 100 µM. For the same compound, the TGI in the assay with T-47D breast is 49.6 µM; in the assay with OVCAR-8 ovarian, more than 100 µM; in the assay on RXF 393 renal, more than 100 µM; in the assay on SK-MEL-2 melanoma, 52.9 µM; with HCT-15 colon, more than 100 µM; in the assay on NCI-H460 lung, more than 100 µM.
Consider `COc1ccc2nc3cc(Cl)ccc3c(NCCCN(Cc3cc(OC)c(OC)c(OC)c3)Cc3cc(OC)c(OC)c(OC)c3)c2c1`, for which the TGI in the assay with ACHN renal was 27.2 µM; in the assay on UACC-62 melanoma it was 32.3 µM; in the assay on OVCAR-5 ovarian, 27.9 µM; with HCT-116 colon it was 1.7 µM; in the assay with U251 CNS, 17.3 µM; in the assay with SK-MEL-28 melanoma it was 33.2 µM. The TGI in the assay on SF-539 CNS stood at 10.5 µM; in the assay on OVCAR-3 ovarian it was 34.6 µM; with CAKI-1 renal, 30.3 µM; in the assay on UACC-257 melanoma, 28.8 µM; in the assay with RPMI-8226 leukemia, 32 µM; in the assay on HOP-92 NSCLC it was 23.7 µM. In addition, the TGI in the assay on T-47D breast was 47.4 µM; with OVCAR-8 ovarian, 25.5 µM; in the assay on RXF 393 renal, 15.2 µM; with SK-MEL-2 melanoma it was 72.1 µM; in the assay on NCI-H460 lung, 23.6 µM.

The values above are taken from PubChem BioAssay (NCI).
